Measurements taken from PubChem BioAssay (NCI).
“And” between values parts separate entries of the source, which are not always exact repeats. Identical values can stand only once.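 Results reflect a 48-hour exposure of cells in 96-well plates to compound at five concentrations. Abbreviation: GI50, concentration required for 50% inhibition of growth. Definition used: TGI = concentration required for complete inhibition of growth.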

What was measured:
Assay in all cases: NCI anticancer screen, dose series, 48 h
NCI-H460 lung = system: NCI-H460 lung
MALME-3M melanoma = system: MALME-3M melanoma
BT-549 breast = system: BT-549 breast
SW-620 colon = system: SW-620 colon
A549 NSCLC = system: A549 NSCLC
CAKI-1 renal = system: CAKI-1 renal
HS 578T breast = system: HS 578T breast
OVCAR-4 ovarian = system: OVCAR-4 ovarian
SN12C renal = system: SN12C renal
UACC-62 melanoma = system: UACC-62 melanoma

SMILES	TGI (NCI-H460 lung)	TGI (MALME-3M melanoma)	TGI (BT-549 breast)	TGI (SW-620 colon) [µM]	TGI (A549 NSCLC) [µM]	TGI (CAKI-1 renal)	TGI (HS 578T breast)	TGI (OVCAR-4 ovarian)	TGI (SN12C renal) [µM]	TGI (UACC-62 melanoma)	GI50 (NCI-H460 lung)	GI50 (BT-549 breast)	GI50 (SW-620 colon)	GI50 (CAKI-1 renal)	GI50 (HS 578T breast) [µM]	GI50 (OVCAR-4 ovarian)	GI50 (SN12C renal)	GI50 (UACC-62 melanoma)	GI50 (A549 NSCLC)
O=c1ccc2c(Cl)sc(Cl)c2[nH]1	> 100 µM	> 100 µM	> 100 µM	> 100	> 100	> 100 µM	> 100 µM	> 100 µM	> 100	> 100 µM	–	–	–	–	–	–	–	–	–
CCOC(=O)C(C(=O)OCC)C(=S)NC1OC(COC(C)=O)C(OC(C)=O)C(OC(C)=O)C1OC(C)=O (centres undefined)	> 100 µM	> 100 µM	> 100 µM	> 100	> 100	> 100 µM	> 100 µM	> 100 µM	> 100	> 100 µM	–	–	–	–	–	–	–	–	–
CSc1c(C#N)c(=O)n(N)c2n[nH]c(C)c12	> 100 µM	> 100 µM	> 100 µM	> 100	> 100	> 100 µM	> 100 µM	> 100 µM	> 100	> 100 µM	–	–	–	–	–	–	–	–	–
COc1ccc(-c2nc3ccccc3c(=O)[nH]2)cc1OC	> 100 µM	> 100 µM	> 100 µM	> 100	> 100	> 100 µM	83.1 µM	> 100 µM	> 100	> 100 µM	–	–	–	–	–	–	–	–	–
O=C(Nc1ccccn1)c1cc2c(cc1Cl)Sc1nccn1S2(=O)=O	> 100 µM	> 100 µM	> 100 µM	> 100	> 100	> 100 µM	> 100 µM	> 100 µM	> 100	> 100 µM	–	–	–	–	–	–	–	–	–
O=C1CN2CCN(CC2)CC(=O)Nc2ccc(cc2)S(=O)(=O)c2ccc(cc2)NC(=O)CN2CCN(CC2)CC(=O)Nc2ccc(cc2)S(=O)(=O)c2ccc(cc2)N1	38.4 µM	38.8 µM	> 87.9 µM	50.7	> 100	> 100 µM	> 100 µM	> 100 µM	> 100	> 67.9 µM	–	–	–	–	–	–	–	–	–
O=CC1C(=O)Nc2nc3ccccc3n2C1c1ccccc1 (centres undefined)	82.8 µM	53.7 µM	28.4 µM	43.3	95.4	48.5 µM	> 100 µM	80.3 µM	28.2	31.9 µM	–	–	–	–	–	–	–	–	–
COc1ccc2oc(=O)c(-c3nc4ccccc4s3)cc2c1	> 100 µM	28.2 µM	> 100 µM	> 100	> 41.9	> 51.8 µM	> 95.8 µM	53.6 µM	> 100	> 100 µM	–	–	–	–	–	–	–	–	–
Nc1nc(=O)n(C2CC(O)C(CO)O2)c2nc(-c3ccc(-c4ccccc4)cc3)cnc12 (centres undefined)	> 100 µM	> 100 µM	> 100 µM	> 100	> 100	> 100 µM	93.9 µM	> 100 µM	> 100	61.1 µM	–	–	–	–	–	–	–	–	–
C[C@H](OC(=O)/C=C/c1ccc(O)c(O)c1)[C@H](C)OC(=O)/C=C/c1ccc(O)c(O)c1	> 100 µM	31.9 µM	24.1 µM	17.8	> 100	> 100 µM	> 100 µM	> 100 µM	34	12.6 µM	–	–	–	–	–	–	–	–	–
C/C(=N\Nc1nc2ccccc2[nH]1)c1ccc2ccccc2n1	10.4 µM	7.85 µM	> 100 µM	14.6	10.2	1.54 µM	35 µM	10.8 µM	7.57	9.25 µM	–	–	–	–	–	–	–	–	–
O=c1oc2ccc([N+](=O)[O-])cc2cc1-c1csc(-c2ccccc2)n1	> 100 µM	> 100 µM	> 100 µM	> 100	> 100	> 100 µM	> 100 µM	> 100 µM	> 100	> 100 µM	–	–	–	–	–	–	–	–	–
CCN(CC)CCCNc1c2cc(OC)ccc2nc2cccc([N+](=O)[O-])c12	0.0596 µM	0.263 µM	0.49 µM	0.339	0.507	0.673 µM	0.448 µM	0.0779 µM	0.402	0.359 µM	–	–	–	–	–	–	–	–	–
CC(=O)Nc1ccc2cc3c(nc2n1)c1cccnc1n3S(=O)(=O)c1ccccc1	> 100 µM	> 100 µM	> 100 µM	> 100	> 100	> 100 µM	> 100 µM	> 100 µM	> 100	> 100 µM	–	–	–	–	–	–	–	–	–
COC(=O)/C=C/c1cc(OC)c2c(c1)C(C(=O)OC)C(c1ccc(O)c(OC)c1)O2 (centres undefined)	> 100 µM and > 47.9 µM and 27.8 µM	> 100 µM and 37.4 µM	> 42.3 µM and 18.9 µM and > 90.5 µM	> 100	> 100	14.3 µM and 11.9 µM and > 74 µM	> 88.1 µM	> 100 µM	> 100	> 56.1 µM and 36.4 µM and 32.9 µM	13.9 µM and 7.71 µM and 5.24 µM	4.54 µM and 1.87 µM and 18.2 µM	2.93 µM and 1.45 µM and 1.46 µM	2.63 µM and 2.04 µM and 12.2 µM	5.34	7.9 µM and 7.77 µM and 18 µM	13.9 µM and 9.44 µM and 4.63 µM	2.42 µM and 3.37 µM and 1.57 µM	–
FC(F)(F)c1ccc(N=NN2CCCC2)cc1	> 100 µM	> 100 µM	> 100 µM	> 100	> 100	> 100 µM	> 100 µM	> 100 µM	> 100	> 100 µM	–	–	–	–	–	–	–	–	–
O=C(O)COc1cccc2ccccc(=O)c12	> 100 µM	> 100 µM	> 100 µM	> 100	> 100	> 100 µM	> 100 µM	> 100 µM	> 100	> 100 µM	–	–	–	–	–	–	–	–	–

SMILES	TGI (NCI-H460 lung)	TGI (MALME-3M melanoma)	TGI (BT-549 breast)	TGI (SW-620 colon) [µM]	TGI (A549 NSCLC) [µM]	TGI (CAKI-1 renal)	TGI (HS 578T breast)	TGI (OVCAR-4 ovarian)	TGI (SN12C renal) [µM]	TGI (UACC-62 melanoma)	GI50 (NCI-H460 lung)	GI50 (BT-549 breast)	GI50 (SW-620 colon)	GI50 (CAKI-1 renal)	GI50 (HS 578T breast) [µM]	GI50 (OVCAR-4 ovarian)	GI50 (SN12C renal)	GI50 (UACC-62 melanoma)	GI50 (A549 NSCLC)
C=C(C)[C@H]1C=C[C@@H](OC(C)=O)[C@@]2(COC(C)=O)[C@H](OC(=O)CCC)[C@H]3[C@@H](OC(C)=O)[C@@H](C)C[C@]3(O)C(=O)[C@@](C)(OC(C)=O)[C@H]12	> 100 µM	> 100 µM	> 100 µM	> 100	> 100	> 100 µM	> 100 µM	> 100 µM	> 100	> 100 µM	–	–	–	–	–	–	–	–	–
O=C1C=C(NCCc2ccc(O)cc2)C(=O)C=C1NCCc1ccc(O)cc1	> 100 µM	> 100 µM	> 100 µM	> 100	> 100	> 100 µM	> 100 µM	> 100 µM	> 100	> 100 µM	–	–	–	–	–	–	–	–	–
CNC(=S)c1nnsc1N	41.5 µM	> 100 µM	> 100 µM	> 100	> 100	> 100 µM	> 100 µM	> 100 µM	> 100	> 100 µM	–	–	–	–	–	–	–	–	–
CN(C)CCNc1nc2c(c(=O)n(C)c(=O)n2C)n1C	> 100 µM	> 100 µM	> 100 µM	> 100	> 100	> 100 µM	> 100 µM	> 100 µM	> 100	> 100 µM	–	–	–	–	–	–	–	–	–
COc1ccc(-c2c(C#N)c(N)n(C3OC(COC(C)=O)C(OC(C)=O)C(OC(C)=O)C3OC(C)=O)c(=S)c2C#N)cc1 (centres undefined)	> 100 µM	> 100 µM and 75.7 µM	89.3 µM and 72 µM	> 100	> 100	> 100 µM	83 µM and > 100 µM	> 100 µM and 55.6 µM	> 100	73.4 µM and 47.3 µM	–	–	–	–	–	–	–	–	36.2 µM and > 100 µM
N#C[C@H](c1nc2ccccc2[nH]1)c1nc2ccccc2nc1Cl	> 53.8 µM	31.7 µM	> 47.8 µM	29.5	> 100	15.3 µM	> 100 µM	> 53.9 µM	30.9	> 38.8 µM	–	–	–	–	–	–	–	–	–
COC(=O)/C=C/[C@H]1[C@H](C)N1S(=O)(=O)c1ccc(C)cc1 (some centres undefined)	> 100 µM	> 100 µM	> 100 µM	> 100	> 100	> 100 µM	> 100 µM	> 100 µM	> 100	> 100 µM	–	–	–	–	–	–	–	–	–
CC1(C)C/C=C\CCC(O)C(O)CCC(C)(C)C1=O (centres undefined)	> 100 µM	> 100 µM	> 100 µM	> 100	> 100	> 100 µM	> 100 µM	> 100 µM	> 100	> 100 µM	–	–	–	–	–	–	–	–	–
Cc1ccc(S(=O)(=O)N/N=C2/C3CC4CCC2C4C3)cc1 (centres undefined)	> 100 µM	> 100 µM	> 100 µM	> 100	> 100	> 100 µM	> 100 µM	> 100 µM	> 100	> 100 µM	–	–	–	–	–	–	–	–	–
CC1=NN(c2cccc(S(=O)(=O)O)c2)C2(C1)SCC(=O)N2c1nc2ccccc2s1 (centres undefined)	> 100 µM	> 100 µM	> 100 µM	> 100	> 100	> 100 µM	> 100 µM	> 100 µM	> 100	> 100 µM	–	–	–	–	–	–	–	–	–
COC(=O)CC(c1ccccc1)C(C#N)(OP1(=O)OC(c2ccccc2)C(C)N1C)c1ccccc1 (centres undefined)	> 100 µM	> 100 µM	> 100 µM	> 100	> 100	> 100 µM	> 100 µM	> 100 µM	> 100	> 100 µM	–	–	–	–	–	–	–	–	–
COc1ccc(/C=C2/C(=O)C(c3ccccc3)N(c3ccccc3)C2=O)cc1OC (centres undefined)	> 10 µM	> 10 µM	> 10 µM	> 10	> 10	> 10 µM	> 10 µM	> 10 µM	> 10	> 10 µM	–	–	–	–	–	–	–	–	–
Cc1nc2ccccc2n1Cc1ccc(NC(=S)NC2CCCCC2)cc1	> 100 µM	> 100 µM	> 100 µM	> 100	> 100	> 100 µM	> 100 µM	> 100 µM	> 100	> 89.7 µM	–	–	–	–	–	–	–	–	–
C=CCOC1=C(OC(C)=O)C(C2COC(C)(C)O2)OC1=O (centres undefined)	61.4 µM	35.1 µM	60.1 µM	32.7	69.4	3.89 µM	> 100 µM	45.9 µM	70.8	68.2 µM	–	–	–	–	–	–	–	–	–
O=C1CCCC1C(O)(C(F)(F)Cl)C(F)(F)Cl (centres undefined)	> 10 µM	> 10 µM	> 10 µM	> 10	> 10	> 10 µM	> 10 µM	> 10 µM	> 10	> 10 µM	–	–	–	–	–	–	–	–	–
CC(=O)Oc1ccc(C2SCc3nc4ccccc4n32)cc1 (centres undefined)	> 100 µM	> 100 µM	> 53.3 µM	> 100	> 100	> 93.2 µM	> 100 µM	> 100 µM	> 100	> 100 µM	–	–	–	–	–	–	–	–	–
